Values after ≈ are worked out from the molar mass of the structure shown. Like-named read-outs stand apart in the source and are kept apart here.
Assays:
Format in all cases: cell-based
E. coli M 50 = experiment: Antibacterial activity (MIC), agar dilution per CLSI; details: Escherichia coli, read-out: MIC
Summary of the method: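 MIC values (mcg/ml) are the lowest compound level on agar showing no growth. Each strain, taken from an overnight culture and diluted, is inoculated onto media carrying doubling dilutions of compound, then incubated for 16-20 hours at 35±2° C. without added CO2.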

E. coli 7 MP = experiment: as above; details: Escherichia coli, Table 3, E. coli 7 MP expressing ESBL, read-out: MIC
Summary of the method: (§1)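 Agar dilution MIC per CLSI: overnight cultures diluted and inoculated onto agar containing doubling dilutions of compound. Growth/no growth read after 16-20 h at 35±2° C in ambient air. Strains express ESBL.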

E. coli NCTC 13351 = experiment: as above; details: Escherichia coli, NCTC13351, Table 3, E. coli NCTC 13351 expressing ESBL, 16-20 hours, 35±2° C., read-out: MIC
Summary of the method: as §1

E. Coli B 89 = experiment: Antibacterial activity (MIC) against MDR Gram negative strains; details: Escherichia coli; Table 4; E. Coli B 89, Class C ESBL, MDR; read-out: MIC
Method: (§2) The biological activity of representative compounds according to the invention against various bacterial strains was investigated. In a typical study, overnight grown bacterial cultures were diluted appropriately and inoculated on the agar media containing doubling dilutions of the test compounds. Observation for growth or no growth was performed after 16-20 hours of incubation at 35±2° C. in ambient air. The overall procedure was performed as per Clinical and Laboratory Standards Institute (CLSI) recommendations (Clinical and Laboratory Standards Institute (CLSI), Performance Standards for Antimicrobial Susceptibility Testing, 20th Informational Supplement, M 100-S20, Volume 30, No. 1, 2010).
(§3) The activities are expressed as MICs (mcg/ml).

K penumoniae H 521 = experiment: as above; details: Table 4; K penumoniae H 521, KPC ESBL, MDR; read-out: MIC
Method: as §2, §3

K penumoniae H 525 = experiment: as above; details: Table 4; K penumoniae H 525, KPC ESBL, MDR; read-out: MIC
Method: as §2, §3

K penumoniae H 523 = experiment: as above; details: Table 4; K penumoniae H 523, KPC ESBL, MDR; read-out: MIC
Method: as §2, §3

E. Coli W 13352 = experiment: as above; details: Escherichia coli; Table 4; E. Coli W 13352, Class A ESBL, MDR; read-out: MIC
Method: as §2, §3

P. aeruginosa Ps 21 = experiment: as above; details: Pseudomonas aeruginosa, PS21; Table 5; P. aeruginosa Ps 21; read-out: MIC
Method: as §2, §3

P. aeruginosa Ps 32 = experiment: as above; details: Pseudomonas aeruginosa, PS32; Table 5; P. aeruginosa Ps 32; read-out: MIC
Method: as §2, §3

E. Coli W 13351 = experiment: as above; details: Escherichia coli; Table 4; E. Coli W 13351, Class A ESBL, MDR; read-out: MIC
Method: as §2, §3

P. aeruginosa ATCC 27853 = experiment: as above; details: Pseudomonas aeruginosa, ATCC27853; Table 5; P. aeruginosa ATCC 27853; read-out: MIC
Method: as §2, §3

E. Coli W 13353 = experiment: as above; details: Escherichia coli; Table 4; E. Coli W 13353, Class A ESBL, MDR; read-out: MIC
Method: as §2, §3

E. Coli M 44 = experiment: as above; details: Escherichia coli; Table 5; E. Coli M 44, Class B ESBL, MDR; read-out: MIC
Method: as §2, §3

E. Coli M 3 = experiment: as above; details: Escherichia coli; Table 5; E. Coli M 3, Class B ESBL, MDR; read-out: MIC
Method: as §2, §3

E. Coli H 484 = experiment: as above; details: Escherichia coli; Table 4; E. Coli H 484, Class C ESBL, MDR; read-out: MIC
Method: as §2, §3

K. penumoniae S 48 = experiment: as above; details: Table 5; K. penumoniae S 48, Class B ESBL, MDR; read-out: MIC
Method: as §2, §3

[1] = M50, Table 3, E. coli M 50 expressing ESBL, agar dilution
[2] = M50, Table 4, E. Coli M 50, Class C ESBL, MDR

Row | SMILES | MIC (E. coli M 50; [1]) [µg/mL] | MIC (E. coli M 50; [2]) [µg/mL] | MIC (E. coli 7 MP) [µg/mL] | MIC (E. coli NCTC 13351) [µg/mL] | MIC (E. Coli B 89) [µg/mL] | MIC (K penumoniae H 521) [µg/mL] | MIC (K penumoniae H 525) [µg/mL] | MIC (K penumoniae H 523) [µg/mL] | MIC (E. Coli W 13352) [µg/mL] | MIC (P. aeruginosa Ps 21) [µg/mL] | MIC (P. aeruginosa Ps 32) [µg/mL] | MIC (E. Coli W 13351) [µg/mL] | MIC (P. aeruginosa ATCC 27853) [µg/mL] | MIC (E. Coli W 13353) [µg/mL] | MIC (E. Coli M 44) [µg/mL] | MIC (E. Coli M 3) [µg/mL] | MIC (E. Coli H 484) [µg/mL] | MIC (K. penumoniae S 48) [µg/mL]
1 | O=C(CN1CCNCC1)NNC(=O)[C@H]1CC[C@@H]2CN1C(=O)N2OS(=O)(=O)O (relative stereo) [Example 19, trans-sulfuric acid mono-[2-(N′-(piperazin-4-yl-acetyl)-hydrazinocarbonyl)-7-oxo-1,6-diaza-bicyclo[3.2.1]oct-6-yl]ester] | 1 (≈ 2.46 µM) | 2 (≈ 4.92 µM) | 2 (≈ 4.92 µM) | 1 (≈ 2.46 µM) | 1 (≈ 2.46 µM) | 1 (≈ 2.46 µM) | 1 (≈ 2.46 µM) | 1 (≈ 2.46 µM) | 2 (≈ 4.92 µM) | > 32 | > 32 | 2 (≈ 4.92 µM) | 32 (≈ 78.7 µM) | 2 (≈ 4.92 µM) | 1 (≈ 2.46 µM) | 1 (≈ 2.46 µM) | 4 (≈ 9.84 µM) | 4 (≈ 9.84 µM)
2 | O=C(NNC(=O)[C@@H]1CC[C@@H]2CN1C(=O)N2OC(F)(F)C(=O)O)[C@@H]1CCCNC1 [Example 5, trans-difluoro-{7-oxo-2-[N′—((R)-piperidin-3-carbonyl)-hydrazinocarbonyl]-1,6-diaza-bicyclo[3.2.1]-oct-6-yloxy}-acetic acid] | 0.25 (≈ 0.617 µM) | 1 (≈ 2.47 µM) | 0.5 (≈ 1.23 µM) | 0.25 (≈ 0.617 µM) | 0.5 (≈ 1.23 µM) | 1 (≈ 2.47 µM) | 2 (≈ 4.93 µM) | 1 (≈ 2.47 µM) | 0.5 (≈ 1.23 µM) | > 32 | > 32 | 0.25 (≈ 0.617 µM) | > 32 | 0.5 (≈ 1.23 µM) | 0.5 (≈ 1.23 µM) | 1 (≈ 2.47 µM) | 1 (≈ 2.47 µM) | 2 (≈ 4.93 µM)
3 | N[C@@H]1CN[C@H](C(=O)NNC(=O)[C@H]2CC[C@@H]3CN2C(=O)N3OS(=O)(=O)O)C1 (mixture of isomers) [Example 35, trans-sulfuric acid mono-[2-(N′-[(2S,4S)-4-amino-pyrrolidin-2-carbonyl]-hydrazinocarbonyl)-7-oxo-1,6-diaza-bicyclo[3.2.1]oct-6-yl]ester] | 1 | 1 | 4 | 1 | 1 | 2 | 1 | 1 | 1 | > 32 | 32 | 1 | > 32 | 1 | 2 | 1 | 1 | 2
4 | O=C(NNC(=O)[C@H]1CC[C@@H]2CN1C(=O)N2OS(=O)(=O)O)C1CCNCC1 (relative stereo) [Example 13, trans-sulfuric acid mono-[2-(N′-(piperidin-4-carbonyl)-hydrazinocarbonyl)-7-oxo-1,6-diaza-bicyclo[3.2.1]oct-6-yl]ester] | 1 (≈ 2.55 µM) | 1 (≈ 2.55 µM) | 2 (≈ 5.11 µM) | 1 (≈ 2.55 µM) | 1 (≈ 2.55 µM) | 1 (≈ 2.55 µM) | 1 (≈ 2.55 µM) | 0.5 (≈ 1.28 µM) | 2 (≈ 5.11 µM) | 32 (≈ 81.8 µM) | 16 (≈ 40.9 µM) | 1 (≈ 2.55 µM) | 32 (≈ 81.8 µM) | 1 (≈ 2.55 µM) | 1 (≈ 2.55 µM) | 1 (≈ 2.55 µM) | 4 (≈ 10.2 µM) | 1 (≈ 2.55 µM)
5 | NCC(=O)NNC(=O)[C@H]1CC[C@@H]2CN1C(=O)N2OS(=O)(=O)O (relative stereo) [Example 7, trans-sulfuric acid mono-[2-(N′-(amino-acetyl)-hydrazinocarbonyl)-7-oxo-1,6-diaza-bicyclo[3.2.1]oct-6-yl]ester] | 2 (≈ 5.93 µM) | 2 (≈ 5.93 µM) | 4 (≈ 11.9 µM) | 2 (≈ 5.93 µM) | 4 (≈ 11.9 µM) | 2 (≈ 5.93 µM) | 2 (≈ 5.93 µM) | 1 (≈ 2.96 µM) | 1 (≈ 2.96 µM) | > 32 | > 32 | 2 (≈ 5.93 µM) | > 32 | 0.5 (≈ 1.48 µM) | 2 (≈ 5.93 µM) | 4 (≈ 11.9 µM) | 4 (≈ 11.9 µM) | 4 (≈ 11.9 µM)
6 | N#CCC(=O)NNC(=O)[C@@H]1CC[C@@H]2CN1C(=O)N2OS(=O)(=O)[O-].[Na+] [Example 43, Sodium salt of trans-sulfuric acid mono-[2-(N′-(cyano-acetyl)-hydrazinocarbonyl)-7-oxo-1,6-diaza-bicyclo[3.2.1]oct-6-yl]ester] | 2 | 1 | 8 | 1 | 1 | 2 | 1 | 1 | 1 | > 32 | > 32 | 1 | > 32 | 1 | 0.5 | 4 | 8 | 1

More lines, now with the values ahead:

Row | MIC (E. coli M 50; [1]) [µg/mL] | MIC (E. coli M 50; [2]) [µg/mL] | MIC (E. coli 7 MP) [µg/mL] | MIC (E. coli NCTC 13351) [µg/mL] | MIC (E. Coli B 89) [µg/mL] | MIC (K penumoniae H 521) [µg/mL] | MIC (K penumoniae H 525) [µg/mL] | MIC (K penumoniae H 523) [µg/mL] | MIC (E. Coli W 13352) [µg/mL] | MIC (P. aeruginosa Ps 21) [µg/mL] | MIC (P. aeruginosa Ps 32) [µg/mL] | MIC (E. Coli W 13351) [µg/mL] | MIC (P. aeruginosa ATCC 27853) [µg/mL] | MIC (E. Coli W 13353) [µg/mL] | MIC (E. Coli M 44) [µg/mL] | MIC (E. Coli M 3) [µg/mL] | MIC (E. Coli H 484) [µg/mL] | MIC (K. penumoniae S 48) [µg/mL] | SMILES
7 | 0.5 | 0.5 | 2 | 0.5 | 0.5 | 0.5 | 0.5 | 0.5 | 0.5 | > 32 | > 32 | 0.5 | > 32 | 0.25 | 0.5 | 0.5 | 4 | 0.5 | O=C(NNC(=O)[C@H]1CC[C@@H]2CN1C(=O)N2OS(=O)(=O)O)[C@@H]1CCCCN1 (mixture of isomers) [Example 17, trans-sulfuric acid mono-[2-(N′—((S)-piperidin-2-carbonyl)-hydrazinocarbonyl)-7-oxo-1,6-diaza-bicyclo[3.2.1]oct-6-yl]ester]
8 | 8 | 8 | 32 | 16 | 8 | 8 | > 32 | 8 | 16 | > 32 | > 32 | 16 | > 32 | 8 | 16 | 8 | 8 | > 32 | O=C(NNC(=O)[C@H]1CCCN1)[C@H]1CC[C@@H]2CN1C(=O)N2OS(=O)(=O)O (mixture of isomers) [Example 30, trans-sulfuric acid mono-[2-(N′—[(R)-pyrrolidin-2-carbonyl]-hydrazinocarbonyl)-7-oxo-1,6-diaza-bicyclo[3.2.1]oct-6-yl]ester]
9 | 2 (≈ 5.1 µM) | 2 (≈ 5.1 µM) | 8 (≈ 20.4 µM) | 4 (≈ 10.2 µM) | 2 (≈ 5.1 µM) | 2 (≈ 5.1 µM) | 2 (≈ 5.1 µM) | 2 (≈ 5.1 µM) | 4 (≈ 10.2 µM) | > 32 | > 32 | 4 (≈ 10.2 µM) | > 32 | 2 (≈ 5.1 µM) | 4 (≈ 10.2 µM) | 1 (≈ 2.55 µM) | 8 (≈ 20.4 µM) | 4 (≈ 10.2 µM) | O=C(NNC(=O)[C@H]1CC[C@@H]2CN1C(=O)N2OS(=O)(=O)O)C1CNCCN1 (mixture of isomers) [Example 38, trans-sulfuric acid mono-[2-(N′—((RS)-piperazin-2-carbonyl)-hydrazinocarbonyl)-7-oxo-1,6-diaza-bicyclo[3.2.1]oct-6-yl]ester]

From patent US9381200B2, “Nitrogen containing compounds” (WOCKHARDT LIMITED, priority 2011, dated 2016)
